Reference: patent publication US9655887B2, “Pharmaceutical composition and the use thereof, and application regime of said pharmaceutical composition for on-demand contraception” (BAYER PHARMA AKTIENGESELLSCHAFT, priority 2013, dated 2017)

These molecules were tested against EP2 subtype of the human PGE2 receptor (hEP2 receptor) (Homo sapiens, UniProt P43116) (assay: cAMP antagonism test, human prostaglandin E2 (subtype EP2) receptor signal).
Sequence of EP2 subtype of the human PGE2 receptor (hEP2 receptor) (P43116 whole entry): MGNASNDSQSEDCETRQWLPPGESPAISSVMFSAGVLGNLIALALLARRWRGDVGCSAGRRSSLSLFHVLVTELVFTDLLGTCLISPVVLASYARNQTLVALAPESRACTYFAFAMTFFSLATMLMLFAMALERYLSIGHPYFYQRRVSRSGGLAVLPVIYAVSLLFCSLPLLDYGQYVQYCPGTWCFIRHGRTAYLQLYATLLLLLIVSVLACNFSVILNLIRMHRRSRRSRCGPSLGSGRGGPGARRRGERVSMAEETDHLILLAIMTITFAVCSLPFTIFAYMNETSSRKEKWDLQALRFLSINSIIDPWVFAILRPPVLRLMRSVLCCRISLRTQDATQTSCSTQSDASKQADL
Assay type: cell-based
How it was run: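 Cells (625000 cells/ml, mixed with cAMP-d2) were preincubated 20 min at RT with compound ([…]). They were then stimulated 60 min at RT with a 3× PGE2 solution (1.5 nM) in PBS-IBMX and lysed for 20 min. cAMP was read by HTRF as the 665/620 nm ratio ×10000, with antagonism seen as a rise in FRET signal.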
`COCCNC(=O)c1ccc2nn(CC3CCN(C(=O)c4ccc(Oc5ccc(F)c(F)c5)cc4)CC3)cc2c1C` [Example E172, 2-({1-[4-(3,4-difluorophenoxy)benzoyl]piperidin-4-yl}methyl)-N-(2-methoxyethyl)-4-methyl-2H-indazole-5-carboxamide] showed an IC50 greater than 50 nM. `COCCNC(=O)c1ccc2nn(CC3CCN(C(=O)c4ccc(-c5ccc(C(F)(F)F)cc5)cc4)CC3)cc2c1C` [Example E173, N-(2-methoxyethyl)-4-methyl-2-[(1-{[4′-(trifluoromethyl)biphenyl-4-yl]carbonyl}-piperidin-4-yl)methyl]-2H-indazole-5-carboxamide] gave an IC50 greater than 50 nM. For `COCCNC(=O)c1ccc2nn(CC3CCN(C(=O)c4ccc(Oc5cccc(F)c5)cc4)CC3)cc2c1C` [Example E174, 2-({1-[4-(3-fluorophenoxy)benzoyl]piperidin-4-yl}methyl)-N-(2-methoxyethyl)-4-methyl-2H-indazole-5-carboxamide], the IC50 was greater than 50 nM. Molecule `COCCNC(=O)c1ccc2nn(CC3CCN(C(=O)c4ccc(OC(C)C)cc4F)CC3)cc2c1C` [Example E175, 2-{[1-(2-fluoro-4-isopropoxybenzoyl)piperidin-4-yl]methyl}-N-(2-methoxyethyl)-4-methyl-2H-indazole-5-carboxamide] has an IC50 greater than 50 nM. `COCCNC(=O)c1ccc2nn(CC3CCN(C(=O)c4ccc(-c5ccc(C)c(C)c5)cc4F)CC3)cc2c1C` [Example E176, 2-({1-[(3-fluoro-3′,4′-dimethylbiphenyl-4-yl)carbonyl]piperidin-4-yl}methyl)-N-(2-methoxyethyl)-4-methyl-2H-indazole-5-carboxamide] gave an IC50 greater than 50 nM. For `COCCNC(=O)c1ccc2nn(CC3CCN(C(=O)c4ccc(-c5ccc(OC)cc5F)cc4F)CC3)cc2c1C` [Example E177, 2-({1-[(2′,3-difluoro-4′-methoxybiphenyl-4-yl)carbonyl]piperidin-4-yl}methyl)-N-(2-methoxyethyl)-4-methyl-2H-indazole-5-carboxamide], the IC50 was greater than 50 nM. With `COCCNC(=O)c1ccc2nn(CC3CCN(C(=O)c4ccc(OC(F)F)cc4)CC3)cc2c1C` [Example E178, 2-({1-[4-(difluoromethoxy)benzoyl]piperidin-4-yl}methyl)-N-(2-methoxyethyl)-4-methyl-2H-indazole-5-carboxamide] the IC50 was greater than 50 nM. In the case of `COCCNC(=O)c1ccc2nn(CC3CCN(C(=O)c4ccc(Oc5ccccc5F)cc4)CC3)cc2c1C` [Example E179, 2-({1-[4-(2-fluorophenoxy)benzoyl]piperidin-4-yl}methyl)-N-(2-methoxyethyl)-4-methyl-2H-indazole-5-carboxamide], the IC50 is reported as greater than 50 nM. In the case of `COCCNC(=O)c1ccc2nn(CC3CCN(C(=O)c4ccc(-c5ccc(C#N)cc5C)cc4)CC3)cc2c1C` [Example E180, 2-({1-[(4′-cyano-2′-methylbiphenyl-4-yl)carbonyl]piperidin-4-yl}methyl)-N-(2-methoxyethyl)-4-methyl-2H-indazole-5-carboxamide], the IC50 is reported as greater than 50 nM. For `COCCNC(=O)c1ccc2nn(CC3CCN(C(=O)c4ccc(-c5ccc(Cl)cn5)cc4)CC3)cc2c1C` [Example E181, 2-({1-[4-(5-chloropyridin-2-yl)benzoyl]piperidin-4-yl}methyl)-N-(2-methoxyethyl)-4-methyl-2H-indazole-5-carboxamide], the IC50 was greater than 50 nM. Molecule `COCCNC(=O)c1ccc2nn(CC3CCN(C(=O)c4ccc(-c5cccc(C(F)(F)F)n5)cc4)CC3)cc2c1C` [Example E182, N-(2-methoxyethyl)-4-methyl-2-[(1-{4-[6-(trifluoromethyl)pyridin-2-yl]benzoyl}-piperidin-4-yl)methyl]-2H-indazole-5-carboxamide] has an IC50 greater than 50 nM. In the case of `COCCNC(=O)c1ccc2nn(CC3CCN(C(=O)c4ccc(-c5ccc(OC)cc5C)cc4)CC3)cc2c1C` [Example E183, N-(2-methoxyethyl)-2-({1-[(4′-methoxy-2′-methylbiphenyl-4-yl)carbonyl]piperidin-4-yl}methyl)-4-methyl-2H-indazole-5-carboxamide], the IC50 is reported as greater than 50 nM. In the case of `COCCNC(=O)c1ccc2nn(CC3CCN(C(=O)c4ccc(-c5ccc(Cl)cc5C)cc4)CC3)cc2c1C` [Example E184, 2-({1-[(4′-chloro-2′-methylbiphenyl-4-yl)carbonyl]piperidin-4-yl}methyl)-N-(2-methoxyethyl)-4-methyl-2H-indazole-5-carboxamide], the IC50 is reported as greater than 50 nM. `COCCNC(=O)c1ccc2nn(CC3CCN(C(=O)c4ccc(-c5ccc(C(C)(C)C#N)cc5)cc4)CC3)cc2c1C` [Example E185, 2-[(1-{[4′-(2-cyanopropan-2-yl)biphenyl-4-yl]carbonyl}piperidin-4-yl)methyl]-N-(2-methoxyethyl)-4-methyl-2H-indazole-5-carboxamide] showed an IC50 greater than 50 nM. With `COCCNC(=O)c1ccc2nn(CC3CCN(C(=O)c4ccc(-c5ccc(OC)cn5)cc4)CC3)cc2c1C` [Example E186, N-(2-methoxyethyl)-2-({1-[4-(5-methoxypyridin-2-yl)benzoyl]piperidin-4-yl}methyl)-4-methyl-2H-indazole-5-carboxamide] the IC50 was greater than 50 nM. For `COCCNC(=O)c1ccc2nn(CC3CCN(C(=O)c4ccc(-c5ccc(C(F)(F)F)nc5)cc4)CC3)cc2c1C` [Example E187, N-(2-methoxyethyl)-4-methyl-2-[(1-{4-[6-(trifluoromethyl)pyridin-3-yl]benzoyl}-piperidin-4-yl)methyl]-2H-indazole-5-carboxamide], the IC50 was greater than 50 nM. For `COCCNC(=O)c1ccc2nn(CC3CCN(C(=O)c4ccc(-c5ccc(OC)nc5)cc4)CC3)cc2c1C` [Example E188, N-(2-methoxyethyl)-2-({1-[4-(6-methoxypyridin-3-yl)benzoyl]piperidin-4-yl}methyl)-4-methyl-2H-indazole-5-carboxamide], the IC50 was greater than 50 nM. In the case of `COCCNC(=O)c1ccc2nn(CC3CCN(C(=O)c4ccc(-c5ccc(F)cc5C)cc4)CC3)cc2c1C` [Example E189, 2-({1-[(4′-fluoro-2′-methylbiphenyl-4-yl)carbonyl]piperidin-4-yl}methyl)-N-(2-methoxyethyl)-4-methyl-2H-indazole-5-carboxamide], the IC50 is reported as greater than 50 nM. Work on `COCCNC(=O)c1ccc2nn(CC3CCN(C(=O)c4ccc(-c5ccc(C)nc5)cc4)CC3)cc2c1C` [Example E190, N-(2-methoxyethyl)-4-methyl-2-({1-[4-(6-methylpyridin-3-yl)benzoyl]piperidin-4-yl}methyl)-2H-indazole-5-carboxamide] yielded an IC50 greater than 50 nM. Molecule `COCCNC(=O)c1ccc2nn(CC3CCN(C(=O)c4ccc(-c5cccc(OC)n5)cc4)CC3)cc2c1C` [Example E191, N-(2-methoxyethyl)-2-({1-[4-(6-methoxypyridin-2-yl)benzoyl]piperidin-4-yl}methyl)-4-methyl-2H-indazole-5-carboxamide] has an IC50 greater than 50 nM. For `COCCNC(=O)c1ccc2nn(CC3CCN(C(=O)c4ccc(-c5ccc(F)cc5OC)cc4)CC3)cc2c1C` [Example E193, 2-({1-[(4′-fluoro-2′-methoxybiphenyl-4-yl)carbonyl]piperidin-4-yl}methyl)-N-(2-methoxyethyl)-4-methyl-2H-indazole-5-carboxamide], the IC50 was greater than 50 nM. In the case of `COCCNC(=O)c1ccc2nn(CC3CCN(C(=O)c4ccc(-c5ccc(Cl)cc5OC)cc4)CC3)cc2c1C` [Example E194, 2-({1-[(4′-chloro-2′-methoxybiphenyl-4-yl)carbonyl]piperidin-4-yl}methyl)-N-(2-methoxyethyl)-4-methyl-2H-indazole-5-carboxamide], the IC50 is reported as greater than 50 nM.
